Data as given in paper PMC9190099, “Menthol carbonates as potent antiparasitic agents: synthesis and in vitro studies along with computer-aided approaches” (BMC Complementary Medicine and Therapies, 2022).
Read-outs that look alike come from different tables or passages of the source.

How the values were obtained:
[1] = tested on: L. braziliensis intracellular amastigotes (HMOM/COL/88/UA301-EGFP); assay: In vitro activity against L. braziliensis amastigotes in U-937 cells (flow cytometry); type: cell-based, Leishmania braziliensis; conditions: for Leishmanicidal activity IS (Index of Selectivity = LC50/EC50): LC50 U-937 / EC50 L. braziliensis; for EC50: intracellular amastigotes of L. braziliensis, 72 h, read-out: Leishmanicidal activity EC50 (median effective concentration); for Leishmanicidal activity class: L. braziliensis amastigotes
Procedure: (§1) Compounds were solubilized in DMSO (1 mg/mL, w/v).
One ml was dispensed into each well of a 24-well culture plate. After 72 h, cells were infected with promastigotes of L. braziliensis (HMOM/COL/88/UA301-EGFP) in a proportion of 15:1 (parasites per cell ratio). Plates were incubated at 34 °C, 5% CO2, and 3 h after non-internalized promastigotes were removed by washing twice with phosphate buffer (PBS). Plates were incubated again at 34 °C, 5% CO2, and 24 h later cells were washed with warm PBS and medium replaced. […] After 72 h, cells were removed using trypsin/EDTA solution and washed twice with PBS by centrifuging 10 min at 1100 rpm, 4 °C. […] The percentage of infected cells was calculated using dot plot analysis according to positive events for green fluorescence and then parasite load in these infected cells was calculated by histogram analysis according to the mean fluorescence intensity (MFI). Infected cells were used as control of infection (negative control) and infected cells exposed to Amphotericin B (AMB) were used as control of antileishmanial activity (positive control).
(§2) Then, these percentages of mortality were used to calculate the median lethal concentrations (LC50) by Probit analysis using Graphpad Prism 8 software. In the case of antiparasitic activity (L. braziliensis, T. cruzi and P. falciparum), the percentage in the reduction of parasites for each concentration tested was quantified using Eq. 2:
(§3) 2 %Parasitereduction=100ODorMFIexposedparasites/ODorMFIcontrolparasitesx100
(§4) All experiments were performed in triplicate. Both cytotoxicity and antiparasitic activity were classified as high, moderate, or low, according to ranges previously established based on the own hit criteria.

in vitro = assay: in vitro
Procedure: Then, 100 µL of cell suspension and 100 μL of each concentration of the compounds were placed in each well of 96-well tissue culture microplate, and plates were incubated again at 37 °C, 5% CO2. […] The reaction was stopped with 100 μL/well of DMSO and absorbance was recorded at 570 nm (Varioskan Flash, Thermo Scientific, Waltham, MA, USA). […] Each measurement was done in triplicate in two independent experiments.
To calculate the cytotoxicity, the percentages of mortality for each concentration tested were calculated according to Eq. 1:
1 %Mortality=100-ODexposedcells/ODnonexposedcellsx100
as §2, §4

[2] = tested on: T. cruzi intracellular amastigotes (Tulahuen strain); assay: In vitro activity for T. cruzi amastigotes in U-937 cells; type: cell-based, Trypanosoma cruzi; conditions: for Trypanocidal activity IS (Index of Selectivity = LC50/EC50): LC50 U-937 / EC50 T. cruzi; for EC50: Trypanosoma cruzi, TULAHUEN, U-937, intracellular amastigotes of T. cruzi, 72 h, read-out: Trypanocidal activity EC50 (median effective concentration)
Procedure: as §1
Plates were incubated at 37 °C, 5% CO2. After 72 h of incubation, cells were infected with 5:1 […] of Tulahuen strain (24 h of growing) per cell ratio. Plates were incubated at 37 °C, 5% CO2. After 24 h of incubation 100 μL of each compound concentration were added to each well and plates were incubated again at 37 °C, 5% CO2. After 72 h of incubation 100 μL of chlorophenol red-β-D-galactopyranoside (CPRG) at 100 µM and 0.1%, Nonidet P-40 was added, and after 3 h of incubation, absorbance was read at 570 nm (Varioskan, Thermo). Infected cells exposed to Benznidazole (BZN) were used as a control for trypanocidal activity (positive control) while infected and non-treated cells were used as a control for infection (negative control). Nonspecific absorbance was corrected as described above. Each measurement was done in triplicate in two independent experiments.
as §2, §3, §4

[3] = tested on: P. falciparum (3D7 strain); assay: In vitro antiplasmodial activity (pLDH); type: cell-based, Plasmodium falciparum; conditions: for Antiplasmodial activity IS (Index of Selectivity = LC50/EC50): LC50 U-937 / EC50 P. falciparum; for Antiplasmodial activity class: P. falciparum; for EC50: Plasmodium falciparum, P. falciparum 3D7, total forms, 48 h, read-out: Antiplasmodial activity EC50 (median effective concentration)
Procedure: Unsynchronized P. falciparum (3D7 strain) culture was adjusted to 0.5% parasitemia and 1% hematocrit in RPMI medium enriched with 3% lipid-rich bovine serum albumin-Albumax II. In each well of a 96-well tissue culture plate, 100 µl of parasite suspension and 100 µl of each dilution of the compounds were added. Plates were incubated for 48 h at 37 °C, 90% N2, 5% CO2, 5% O2. After incubation, supernatants were harvested and parasites were subjected to three 20–minute freeze–thaw cycles. In a second flat–bottomed 96-well microtiter plate were dispensed 100 µL of Malstat reagent, pH 9.0, 25 µL of NBT/PES solution, and 15 µL of lysed parasites. Plates were incubated in the dark at 37 °C for 90 min and color development of the pLDH reaction was read at 650 nm (Varioskan, Thermo). […] Nonspecific absorbance was corrected by subtracting optical density (OD) of the blank. […]. Each measurement was done in triplicate in two independent experiments.
as §2, §4

[4] = tested on: murine model of alveolar echinococcosis; design: method as in PMID 32101761; conditions: listed as menthol-pentanol prodrug; cited from earlier work
[5] = tested on: Echinococcus multilocularis protoscoleces; design: method as in PMID 32101761; conditions: E. multilocularis protoscoleces, in vitro; cited from earlier work
[6] = tested on: Leishmania amazonensis promastigotes; design: method as in earlier work; conditions: ref 53 (Silva et al. 2017), read-out: EC50 against Leishmania amazonensis promastigotes; cited from earlier work
L. branziliensis = tested on: L. branziliensis; design: method as in PMID 28509873; conditions: previous studies; read-out: EC50 reported for L. branziliensis; cited from earlier work
[7] = Leishmania braziliensis, U-937, 72 h

Row | Structure (SMILES) | Leishmanicidal activity IS (Index of Selectivity = LC50/EC50) [1] | EC50 ([1]; Leishmania braziliensis, U-937) | CC50 at 72 h (in vitro) | Trypanocidal activity IS (Index of Selectivity = LC50/EC50) [2] | EC50 [2] | Antiplasmodial activity IS (Index of Selectivity = LC50/EC50) [3] | Antiplasmodial activity class [3] | EC50 [3] | EC50 [1, 7] | Leishmanicidal activity class [1] | EC50 [1] | clinical efficacy [4] | protoscolicidal effect [5] | EC50 [6] | Trypanocidal activity class ([2]; T. cruzi amastigotes) | EC50 (L. branziliensis)
1 | C[C@@H]1[C@H](O)[C@@H](C)/C=C/C=C/C=C/C=C/C=C/C=C/C=C/[C@H](O[C@@H]2O[C@H](C)[C@@H](O)[C@H](N)[C@@H]2O)C[C@@H]2O[C@](O)(C[C@@H](O)C[C@@H](O)[C@H](O)CC[C@@H](O)C[C@@H](O)CC(=O)O[C@H]1C)C[C@H](O)[C@H]2C(=O)O [AMB, Amphotericin B, reference compound] | 134.8 | 0.4 ± 0.1 µM | 53.9 ± 7.4 µM | – | – | – | – | – | – | – | – | – | – | – | – | –
2 | O=C(Cn1ccnc1[N+](=O)[O-])NCc1ccccc1 [BNZ, Benznidazole, reference compound] | – | – | > 768 µM | 12.8 | 60.1 ± 12.2 µM | – | – | – | – | – | – | – | – | – | – | –
3 | COC(=O)OC1CC(C)CCC1C(C)C (centres unmarked) [Compound 1, Metyl(2-Isopropyl-5-methylcyclohexanol)carbonate] | 3.0 | – | 68.5 ± 6.7 µM | 0.6 | 105 ± 34.5 µM | 0.5 | low (low activity (EC50 > 100 μM)) | 127 ± 9.9 µM | 22.9 ± 2.8 µM | – | – | – | – | – | – | –
4 | CCOC(=O)OC1CC(C)CCC1C(C)C (centres unmarked) [Compound 2, Etyl(2-Isopropyl-5-methylcyclohexanol)carbonate] | 3.6 | – | 103 ± 35.8 µM | 3.1 | 33.8 ± 4.3 µM | 3.6 | high (high (EC50 < 50 μM)) | 28.4 ± 0.4 µM | 28.4 ± 0.4 µM | – | – | – | – | – | – | –
5 | CCCOC(=O)OC1CC(C)CCC1C(C)C (centres unmarked) [Compound 3, Propyl(2-Isopropyl-5-methylcyclohexanol)carbonate] | 1.8 | – | 57 ± 14.4 µM | 1.7 | 33.8 µM | 0.9 | – | 60.7 ± 1.2 µM | 31.8 ± 4.1 µM | – | – | – | – | – | – | –
6 | CC1CCC(C(C)C)C(OC(=O)OC(C)C)C1 (centres unmarked) [Compound 4, Isopropyl(2-Isopropyl-5-methylcyclohexanol)carbonate] | 3.4 | – | 145 ± 74.5 µM | 0.1 | 2060 ± 175 µM | 2.4 | – | 60.7 ± 1 µM | 43.2 ± 0.3 µM | – | – | – | – | – | – | –
7 | CCCCOC(=O)OC1CC(C)CCC1C(C)C (centres unmarked) [Compound 5, Butyl(2-Isopropyl-5-methylcyclohexanol)carbonate] | 3.5 | – | 207 ± 38.2 µM | 1.7 | 122 ± 21.4 µM | 3.7 | – | 56.3 ± 1 µM | 53.3 µM | moderate (moderate (EC50 > 50 μM < 100 μM)) | 59.3 ± 1.4 µM | – | – | – | – | –
8 | CCCCCOC(=O)OC1CC(C)CCC1C(C)C (centres unmarked) [Compound 6, Pentyl(2-Isopropyl-5-methylcyclohexanol)carbonate] | – | – | – | 7.4 | 29.6 ± 1.2 µM | – | – | – | 96.7 ± 0.6 µM | moderate (moderate (EC50 > 50 μM < 100 μM)) | – | clinical efficacy similar to Albendazole | greater protoscolicidal effect than menthol | – | – | –
9 | CCCCCCOC(=O)OC1CC(C)CCC1C(C)C (centres unmarked) [Compound 7, Hexyl(2-Isopropyl-5-methylcyclohexanol)carbonate] | 2.6 | – | 73.3 ± 15.8 µM | 1.6 | 46.3 ± 4.9 µM | 0.2 | low (low activity (EC50 > 100 μM)) | 432 ± 239 µM | 28.2 ± 1.1 µM | – | – | – | – | – | – | –
10 | CCCCCCCOC(=O)OC1CC(C)CCC1C(C)C (centres unmarked) [Compound 8, Heptyl(2-Isopropyl-5-methylcyclohexanol)carbonate] | – | – | 48.4 ± 6.1 µM | 1.8 | 27.6 ± 4.4 µM | 0.7 | – | 67.4 ± 5.8 µM | > 23.5 µM | – | – | – | – | – | – | –
11 | CCCCCCCCOC(=O)OC1CC(C)CCC1C(C)C (centres unmarked) [Compound 9, Octyl(2-Isopropyl-5-methylcyclohexanol)carbonate] | 0.1 | – | 44.1 ± 3.8 µM | 1.7 | 26.7 ± 4.6 µM | 0.7 | – | 62.4 ± 6.5 µM | 463 ± 206 µM | – | – | – | – | – | – | –
12 | COc1cccc2c1C(=O)c1c(O)c3c(c(O)c1C2=O)C[C@@](O)(C(=O)CO)C[C@@H]3O[C@H]1C[C@H](N)[C@H](O)[C@H](C)O1 [DOXO, Doxorubicin, reference compound] | – | – | 1.7 ± 0.2 µM | – | – | – | – | – | – | – | – | – | – | – | – | –
13 | CC1CCC(C(C)C)C(O)C1 (centres unmarked) [Menthol, 2-Isopropyl-5-methylcyclohexanol] | – | – | 266 ± 188 µM | 1.5 | 173 ± 28.9 µM | 0.7 | – | 358 ± 51 µM | > 128 µM | – | – | – | – | 1270 µM | low (low activity (EC50 > 100 μM)) | –
14 | C=CCc1ccc(O)c(OC)c1 [eugenol] | – | – | – | – | – | – | – | – | – | – | – | – | – | 505 µM | – | 60.4 µM
